Source: patent US8729032B2, “Self-assembling peptide and peptide gel with high strength” (Menicon Co., Ltd., priority 2009, dated 2014)

Columns and labels:
mouse myoblasts (L6) = assay: Cell culture in peptide gel, DNA quantification (CyQUANT), cell growth rate; assay type: cell-based; conditions: rate immediately after start = 100%, peptide 0.4 w/v %, average of n=3
From the text: A cell suspension including mouse myoblasts (L6) at a cell concentration of 2.0×10^6 cells/ml and a peptide aqueous solution including the modified peptide 1 at 1.0 w/v % were mixed with each other at a volume ratio of 3:2 (cell suspension:peptide aqueous solution). The resultant mixture (cell concentration: 1.2×10^6 cells/ml, peptide concentration: 0.4 w/v %) was charged into a Cell Culture Insert (product number “353096” manufactured by BD Falcon) and left to stand still at room temperature for approximately 1 minute to form a peptide gel. The gel in the Cell Culture Insert was directly set in wells of a 24-well plate for tissue culture (product number “3820-024” manufactured by AGC TECHNO GLASS CO., LTD.) with 1 mL of a DMEM medium containing 10% calf serum. Next, cell culture was carried out in an incubator at 37° C. in the presence of 5% CO2. Medium exchange was carried out only once on Day 2 after the start of culture. The gel was collected on Days 1, 2, and 4 after the start of culture, and DNA quantification was carried out using a trade name “CyQUANT (registered trademark) Cell Proliferation Assay Kit*for cells in culture**1000 assays*” (product number “C7026” manufactured by Invitrogen), to thereby calculate cell growth rates. The cell growth rates on Days 1, 2, and 4 after the start of culture were 150%, 180%, and 310%, respectively, when the cell growth rate immediately after the start of culture was defined as 100%, that is, the number of cells increased in accordance with a lapse of days (an average of n=3 was used for the calculation results).

mouse NIH3T3 cells = assay: Cell culture in autoclaved peptide gel, Cell Counting Kit 8, cell growth rate; assay type: cell-based; conditions: Day 0 (Hour 2), Day 1, Day 3, Day 5; gel from 0.5 w/v % solution autoclaved at 121° C. for 20 minutes; FIG. 9
Experimental: The modified peptide 1 was dissolved in a sodium carbonate solution to prepare a 0.5 w/v % peptide aqueous solution (final concentration of sodium carbonate: 2.75 mM). The peptide aqueous solution was subjected to sterilization treatment at 121° C. for 20 minutes using an autoclave apparatus (product number “MLS 3020” manufactured by SANYO Electric Co., Ltd.) to afford a peptide gel. The gel and a cell suspension obtained by suspending mouse NIH3T3 cells in a DMEM medium were uniformly mixed with each other at a volume ratio of 2:1 (gel:cell suspension) by pipetting. […] Cell growth rates were measured using a trade name “Cell Counting Kit 8” (manufactured by DOJINDO LABORATORIES) on Day 0 (Hour 2), Day 1, Day 3, and Day 5 after the start of culture.
A specific procedure for the measurement of the cell growth rates described above is as described below. […] After the incubation, 100 μL of the medium permeating the gel in the Cell Culture Insert were transferred to a well of a 96-well plate, and the absorbance of the medium at 450 nm was measured using a plate reader. Cell growth rates in the respective culture days were determined with the absorbance of a sample on Day 0 after the start of culture defined as 100.

Substance | cell growth rate (mouse myoblasts (L6); Day 1 after start of culture) | cell growth rate (mouse myoblasts (L6); Day 2 after start of culture) | cell growth rate (mouse myoblasts (L6); Day 4 after start of culture) | cell growth rates (mouse NIH3T3 cells)
[CH3CO]-RLDLRLALRLDLR-[NH2] (Ac-RLDLRLALRLDLR-NH2) [modified peptide 1] | 150% | 180% | 310% | increased in accordance with a lapse of culture days
[CH3CO]-RLDLRLLLRLDLR-[NH2] (Ac-RLDLRLLLRLDLR-NH2) [modified peptide 2] | 140% | 160% | 250% | 
